Reference: patent publication US20230029259A1, “COMBINATION OF IAP INHIBITORS AND PARP OR MEK INHIBITORS OR OTHER CHEMOTHERAPEUTIC AGENTS” (Ascentage Pharma (Suzhou) Co., Ltd., priority 2019, published 2023)
Where “and” joins values, the source holds several entries; their conditions need not be identical. Identical values can stand only once.

Columns and labels:
[1] = test system: pancreatic cancer patient derived xenograft (PDX) model PA1170; assay: Antitumor activity in subcutaneous pancreatic cancer PDX model PA1170 (Biological Example 1); format: in vivo, BALB/c nude mice; settings: day 28, Example 24 10 mg/kg i.v. QW, olaparib 50 mg/kg p.o. BID, trametinib 0.3 mg/kg p.o. QD, 4 ws
Text: (§1) Balb/c nude, female, 4-6 weeks, weighing approximately 18-22 g, which were purchased from GemPharmatech Co., Ltd (Nanjing, Jiangsu).
(§2) All of the PDX models were originally established from a surgically resected clinical sample (cancer type: pancreatic adenocarcinoma), and implanted in nude mice defined as passage 0 (P0). The next passage implanted from P0 tumor was defined as passage1 (P1), and so on during continual implantation in mice. The frozen tumor fragments were revived in NOD SCID mice, when the tumors were developed to suitable size, they were passaged to Balb/c nude mice. The P4-P7 tumors were used for the study.
(§3) Each group consisted of 5 tumor-bearing mice.
(§4) The protocol and any amendment(s) or procedures involving the care and use of animals in this study were reviewed and approved by the Institutional Animal Care and Use Committee (IACUC) of CrownBio prior to execution. During the study, the care and use of animals were conducted in accordance with the regulations of the Association for Assessment and Accreditation of Laboratory Animal Care (AAALAC). After tumor inoculation, the animals were checked daily for morbidity and mortality. During routine monitoring, the animals were checked for any effects of tumor growth and treatments on behavior such as mobility, food and water consumption, body weight gain/loss, eye/hair matting and any other abnormalities. Mortality and observed clinical signs were recorded for individual animals in detail.
(§5) After randomization, tumor volumes were measured twice per week in two dimensions using a caliper, and the volume was expressed in mm^3 using the formula: […]
(§6) where V is tumor volume, L is tumor length (the longest tumor dimension) and W is tumor width (perpendicular to L). Body weight was measured twice per week. Dosing as well as tumor and body weight measurements were conducted in a Laminar Flow Cabinet. The body weights and tumor volumes were measured by using StudyDirector™ software (version 3.1.399.19).
(§7) Relative tumor volume (RTV) was calculated using the following formula: […]
(§8) where V1 and Vt are the average tumor volumes on the first day of treatment (day 1) and the average tumor volumes on a certain time point (day t).
(§9) Synergy score was calculated using the following formula described in Clarke R. Issues in experimental design and endpoint analysis in the study of experimental cytotoxic agents in vivo in breast cancer and other models[J]. Breast Cancer Research & Treatment, 1997, 46(2-3):255-278, which is incorporated by reference in its entirety:
(§10) Synergy score=((A/C)×(B/C))/(AB/C),
(§11) where A is RTV value of drug A; B is RTV value of drug B; C is RTV value of vehicle control. AB is RTV value of combination treatment with A and B. Synergy scores: >1 represents synergistic, =1 represents additive, <1 represents antagonistic (referring to Gould S E et al. Translational value of mouse models in oncology drug development. Nature medicine. 2015 21, 431-439).
(§12) Standard NCI procedures were used to calculate tumor parameters. Percent tumor growth inhibition (% T/C) was calculated as the mean RTV of treated tumors (T) divided by the mean RTV of control tumors (C)×100%. The percentage T/C value is an indication of antitumor effectiveness: a value of T/C<42% is considered significant antitumor activity by the NCI. A T/C value <10% is considered to indicate highly significant antitumor activity, and is the level used by the NCI to justify a clinical trial if toxicity and certain other requirements are met (termed DN-2 level activity). A body weight loss nadir (mean of group) of greater than 20%, or greater than 20% of drug deaths are considered to indicate an excessively toxic dosage.
(§13) The antitumor activity curves of test articles were plotted with the observation time on the X-axis, and corresponding tumor volume (geometric mean) on the Y-axis. A two-tailed t-test was employed to analyze the statistical significance of any difference between the treatment group and the control group. […]

[2] = test system: pancreatic cancer patient derived xenograft model PA6265; assay: Antitumor activity in subcutaneous pancreatic cancer PDX model PA6265 (Biological Example 1); format: in vivo, BALB/c nude mice; settings: olaparib 50 mg/kg p.o. BID, trametinib 0.3 mg/kg p.o. QD, 4 weeks; for T/C (%) @ D29: day 29 (text: day 28), Example 24 10 mg/kg i.v. QW; for RTV @ D29: day 29, Example 24 10 mg/kg i.v. QW
Text: as §1, §2, §3, §4, §5, §6, §7, §8, §9, §10, §11, §12, §13

[3] = test system: PA1170 pancreatic cancer patient-derived xenograft model; assay: Antitumor activity in PA1170 pancreatic cancer PDX model, confirmation study (Biological Example 3); format: in vivo, mice; settings: for RTV @ D29 / T/C (%) @ D29: day 29, Example 24 10 mg/kg IV, olaparib 50 mg/kg p.o. BID, trametinib 0.3 mg/kg p.o. QD, 4 weeks
[4] = test system: Panc-1 human pancreatic cancer xenograft model; settings: Panc-1 xenograft, day 27; abraxane 30 mg/kg i.v. QW×3w, gemcitabine 120 mg/kg i.p. QW×3w
[5] = test system: murine pancreatic cancer model mPA6115; assay: Antitumor activity in murine pancreatic cancer model mPA6115 (Biological Example 2)
Text: C57BL/6, female, 6-8 weeks, weighing approximately 18-20 g, which were purchased from Shanghai Lingchang Biotechnology Co., Ltd (Shanghai, China).
mPA6115 is a murine pancreatic cancer cell line carries a conditional mutant KRAS (KrasLSL-G12D/WT), a constitutive deletion of TP53 (p53−/−) and a Cre driven by the promoter of Pdx1 gene.
Fresh tumor tissues from mice bearing established primary cancer tissues were harvested and cut into small pieces (approximately 2-3 mm in diameter). Tumor fragments, harvested from donor mice, were inoculated subcutaneously at the upper right dorsal flank into corresponding female C57BL/6 mice for tumor development. Treatments were started when the average tumor size reached approximately 150 mm^3. Randomization were performed based on “Matched distribution” method/“Stratified” method using the multi-task method (StudyDirector™ software, version 3.1.399.19)/randomized block design. Each group consisted of 6 tumor-bearing mice.

[6] = mPA6115, day 21, Example 24 0.2 mg/kg i.v. BIW×3w, abraxane 15 mg/kg i.v. QW×3w, gemcitabine 120 mg/kg i.p. QW×3w

Row | Structure (SMILES) | RTV @ D28 [1] | T/C (%) @ D28 [1] | T/C (%) @ D28 ([1]; listed as olaparib) | T/C (%) @ D29 [2] | T/C (%) @ D29 ([2]; listed as olaparib) | RTV @ D29 [2] | RTV @ D29 [3] | T/C (%) @ D29 [3] | T/C (%) @ D29 ([3]; listed as olaparib) | T/C (%) @ D28 ([1]; listed as trametinib) | T/C (%) @ D29 ([2]; listed as trametinib) | T/C (%) @ D29 ([3]; listed as trametinib) | Response @ D28 ([3]; responders/animals (CR, SD)) | RTV @ D27 [4] | T/C (%) @ D27 [4] | antitumor effect (in words) ([5]; mPA6115, day 21, single agent 0.2 mg/kg i.v. BIW×3w) | RTV @ D21 [5, 6] | T/C (%) @ D21 [5, 6] | Response @ D21 ([5]; mPA6115, day 21, animals with PD or died / animals)
1 | O=C(c1cc(Cc2n[nH]c(=O)c3ccccc23)ccc1F)N1CCN(C(=O)C2CC2)CC1 [Olaparib] | 3.09 ± 0.73 | 32.15% | 32% | 71.78% | 72% | 4.07 ± 0.51 | 1.90 ± 1.13 | 22.33% | 22.3% | – | – | – | – | – | – | – | – | – | –
2 | CC(=O)Nc1cccc(-n2c(=O)n(C3CC3)c(=O)c3c(Nc4ccc(I)cc4F)n(C)c(=O)c(C)c32)c1 [Trametinib] | 6.59 ± 0.41 | 68.57% | – | 76.01% | – | 4.31 ± 0.98 | 7.34 ± 1.49 | 86.25% | – | 69% | 76% | 86.3% | – | – | – | – | – | – | –
3 | CN[C@@H](C)C(=O)N[C@H]1CN(S(=O)(=O)c2cccc(S(=O)(=O)N3CC[C@H]4CC[C@@H](C(=O)NC(c5ccccc5)c5ccccc5)N4C(=O)[C@@H](NC(=O)[C@H](C)NC)C3)c2)CC[C@H]2CCC(C(=O)NC(c3ccccc3)c3ccccc3)N2C1=O (stereo partly drawn) [the compound of Example 24] | – | – | – | – | – | – | 4.29 ± 1.83 | 50.4% and 50.41% | – | – | – | – | 1/5 SD | 2.63 ± 0.51 | 66.1% and 66.08% | no antitumor effect | 32.77 ± 10.36 | 144.28% | 5/6 PD, 1/6 died
